In patent US12686667B2, “Methods and compositions for gamma-glutamyl cycle modulation” (CANCER RESEARCH TECHNOLOGIES LLC, priority 2013, dated 2026):

Experiments:
[1] = system: human prostate tumor cell line; assay: Nude mouse model inoculated with human prostate tumor cell line; racemic, L- and D-GGCI compared; format: in vivo, nude mice
Description: Relative activities of the exemplary enantiomeric GGCI compounds of this invention were compared. Conjugates of benzaldehyde, salicylaldehyde and para-methoxybenzaldehyde were prepared, using either enantiomeric L- or D-penicillamine as the second reactant. The efficacy of racemic BA-GGCI, racemic SA-GGCI and racemic PMB-GGCI in the treatment of human prostate cancer was tested using the nude mouse model as in Example 2, except that the nude mice were inoculated intravenously with a human prostate tumor cell line. One group of the inoculated mice was treated with the racemic BA-GGCI and a control group of the inoculated mice was treated with placebo, and the effects of treatment with GGCI and placebo were compared. Response to treatment was monitored by changes in [PSA].
The exemplary L- and D-enantiomer BA-GGCIs were prepared in accordance with synthetic scheme of FIG. 1 using L-penicillamine.

lung CA CRL5891 = assay: Survival of nude mice inoculated with human lung cancer; format: in vivo, athymic nude mice; details: for survival of treated group: nude male mice, 400 rads, lung CA CRL5891, 100 mg/kg I.P. every day, six days a week, followed up for 120 days, control: eight of ten died
Description: In order to examine survival of athymic nude mice inoculated intravenously with tumors, one group of the inoculated mice was treated with racemic BA-GGCI, and a second group of the inoculated mice were treated with placebo, and the effects of treatment with BA-GGCI and placebo were compared.
Two subgroups of nude male mice where examined: A control group and an experimental group. The groups included twenty athymic nude mice (ten control and ten experimental) subjects, each irradiated with 400 rads of radiation and inoculated with lung CA CRL5891 at 3×10,000,000 cells per mouse. Interventional treatment was identical to the first study as above.
The subjects were followed up for 120 days. In the Control group, eight of ten subjects died. Two of the surviving mice developed a large tumor.

Human Melanoma cells 624 = assay: Survival of nude mice inoculated with human melanoma; format: in vivo, athymic nude mice; details: for survival of treated group: nude mice, 400 rads, Human Melanoma cells 624, 100 mg/kg I.P. every day, six days a week, followed up for 120 days, control: ten out of ten died
Description: In order to examine the survival rate of athymic nude mice, inoculated intravenously with tumors, one group of the inoculated mice was treated with BA-GGCI, and a second group of the inoculated mice were treated with placebo, and the effects of treatment with BA-GGCI and placebo were compared.
Two subgroups of nude mice were examined: a control group and an experimental group. The groups included a total of twenty athymic nude mice (ten control and ten experimental), each irradiated with 400 rads of radiation and inoculated with Human Melanoma cells 624 at 3.0×10,000,000 cells per mouse. Treatment of the experimental group with racemic BA-GGCI commenced at 24 hours after the inoculation. The treatment was administered intraperitoneally (I.P.) at a dose of 100 mg/kg in 2 cc of saline every day, six days a week. The control group received placebo (2 cc saline IP), every day, six days a week.
The subjects were followed up for 120 days.

[2] = system: patients with advanced prostate cancer; assay: Compassionate use treatment of patients with advanced prostate cancer; format: in vivo, human
Description: Two patients with advanced prostate cancer were treated under a compassionate use program with an exemplary GGCI
Racemic BA-GGCI was administered to two human subjects who were receiving hormonal therapy for 12 and 14 months respectively.
At the onset of the GGCI treatment, both patients were bedridden with PSA (Prostate Specific Antigen) values of 340 and 180 ng/mL respectively. Both subjects presented with multiple bone metastases, and agonizing pains. The GGCI treatment protocol comprised 600 mg of GGCI capsule 3 times/day (formulated for human based on less then 5% of the LD50 toxicity on mice).

tumor = assay: Anti-cancer activity of (L) versus (D) conformation compounds in animal models and compassionate use (summary statement); format: in vivo; details: animal models and compassionate use treatment of human subjects
Source text: However, in contrast to D-penicillamine, the L-penicillamine stereoisomer is toxic, and has not been approved as a drug. […] Moreover, when the inventors compared the relative activities, the (L) conformation compounds of this disclosure appeared to be at least 2× as active as the corresponding racemate, due to the improved stereospecificity in the enzymatic catalysis of 5-oxoproline by 5 oxoprolinase.

Balb C Mice = assay: LD50 toxicity study on Balb C mice; format: in vivo
Description: (§1) LD50 data was measured, and exemplary gamma-glutamyl cycle inhibitor's toxicity study was conducted on Balb C Mice. A conjugate of L-penicillamine and methyl glyoxal (MGPA) was adminstered at about 4500 mg/kg ip, 5000 mg/kg oral. A conjugate of L-penicillamine and para-methoxyphenyl (PMPA) was administered at 5250 mg/kg ip, 5500 mg/kg oral; and a conjugate of L-penicillamine and citronellal (CNPA) was administered at 3250 mg/kg ip, 4500 mg/kg oral.

B6C3F1 Mice = assay: LD50 determination in B6C3F1 mice; format: in vivo; design: 1/10 LD50: unit: mg/kg/inj
Source text: Summary of LD50 Determination with a conjugate of L-penicillamine and salicylaldehyde (L-SAPA), a conjugate of L-penicillamine and benzaldehyde (L-BAPA), a conjugate of L-penicillamine and pyruvic aldehyde (L-PAPA) and a conjugate of L-penicillamine and glutaric dialdehyde (L-GAPA) in B6C3F1 Mice.

CD1 mice = assay: Sub-acute (4 weeks) per os (via food) toxicity to mice; format: in vivo
Source text: Sample: L-Thiazolidine-di-methyl-carboxylic acid: “L-BAPA” powder was mixed in the food (pellets).
Subjects were examined for: Sub-acute (4 weeks) per os (via food) toxicity of L-BAPA to mice.
Forty females and forty male CD1 mice, 8-10 weeks old, were housed 5 per cage (milipore filtered top cages), half of them used as controls, receiving normal mouse diet (prepared at the breeding center food plant). The other half were the experimental group and received same food composition in which 0.6 g L-Thiazolidine-di-methyl-carboxylic acid in kg food was mixed and pelleted in smaller pellet machine. This food contains 12% humidity, as compared with 6% humidity of the control diet. The animals were fed ad libitum. All animals were weighed weekly and food consumption was recorded. Possible clinical or pharmaceutical effects were checked daily. After 4 weeks, the mice were put into metabolic cages for 24 hours, their urine was collected, and then the animals were bled before sacrificing. The blood was analyzed and bone marrow smears were prepared for differential count.
The reason for putting […] in a group was to assure enough blood and urine for analysis, so all the blood clinical chemistry and urinalysis are of a pool of 2 mice each. All other results are individual results, performed randomly on one of each 2 mouse group.
The following organs were examined histologically: adrenals, brain, eye, gonads, heart, intestines (colon, caecum, duodenum, ileum, rectum) kidneys, liver, lungs, lymph nodes (mesenterial and inguinal) mammary gland, mediastinum, esophagus, pancreas, pituitary, salivary gland, skeletal muscle, skin, spinal cord, spleen, stomach, thyroid, urinary bladder and uterus. The organs were fixed in Bouin's solution and stained with hematoxylin-eosin-phosphomolybdic-acid light green stain. Weights for the adrenals, gonads, kidneys, liver and pituitary were recorded and the ratio organ weight/body weight was calculated.
The following lab studies were performed:
Hematology: Hemoglobin, hematocrit, erythrocyte count, leukocyte count.
Clinical chemistry: alkaline phosphatase, blood urea nitrogen, serum glutamic, pyruvic transaminase, blood sugar.
Urinalysis: appearance occult blood, protein Ph, bilirubin, ketones, glucose, nitrites, urobilinogen.

[3] = LD50 toxicity study on Balb C mice; format: in vivo; details: mouse, in vivo
Description: as §1

[4] = subject #1, 600 mg capsule 3 times/day
[5] = subject #2, 600 mg capsule 3 times/day
[6] = CD1 mice, 0.6 g in kg food, 4 weeks
[7] = CD1 mice, 0.6 g in kg food, 4 weeks, versus control

CC1(C)SC(c2ccccc2)NC1C(=O)O (racemic) [racemic BA-GGCI]
survival rate versus control group ([1]; nude mice inoculated intravenously with human prostate tumor cell line, treatment as in Example 2, response monitored by [PSA]): significantly higher survival rate than the control group
detectable tumor in treated group (lung CA CRL5891; lung CA CRL5891 nude mice, 100 mg/kg I.P., 120 days): none with detectable tumor
survival of treated group (lung CA CRL5891): all mice remained alive
tumor development in treated group (Human Melanoma cells 624; Human Melanoma cells 624 nude mice, 100 mg/kg I.P., after stopping the treatment): Two of the subjects developed small tumors after stopping the treatment
survival of treated group (Human Melanoma cells 624): ten out of ten subjects in the treated group were all alive
PSA value after treatment (dropped from 340) [2, 4]: 18 units
time to return to regular activities [2, 4]: within a month
time until pain level subsided [2, 4]: ≤ 10 days
PSA level after continued drop ([2]; subject #1, 600 mg capsule 3 times/day, later): 5 units
time subject felt normal ([2]; subject #1, before they eventually passed away): 28 months
bone CAT scan ([2]; subject #1, multiple bone metastases at onset): substantial remission
survival after initiation of the treatment (still alive, feeling well) ([2]; subject #2): ≥ 36 months
PSA after treatment (180 ng/mL at onset) [2, 5]: 16 units
time to return to normal activities [2, 5]: 2-3 weeks
time until pains subsided [2, 5]: 7 days

COc1ccc(C2N[C@@H](C(=O)O)C(C)(C)S2)cc1 (mixture of isomers) [racemic PMB-GGCI, 2-imino-3-p-methoxybenzyl-4 sulfanyl-5 dimethyl 1-carboxylic acid]
survival of treated group (lung CA CRL5891): results similar to those obtained with racemic BA-GGCI
survival of treated group (Human Melanoma cells 624): results similar to those obtained with racemic BA-GGCI

CC1(C)SC(c2ccccc2O)NC1C(=O)O (racemic) [racemic SA-GGCI]
survival of treated group (lung CA CRL5891): results similar to those obtained with racemic BA-GGCI
survival of treated group (Human Melanoma cells 624): results similar to those obtained with racemic BA-GGCI
subjective well-being of patients ([2]; human patients, compared with BA-GGCI): subjectively felt better than patients to whom BA-GGCI was administered
overall treatment result in patients ([2]; human patients, compared with BA-GGCI treatment): results similar to those obtained with B-GGCI treatment

COc1ccc(C2NC(C(=O)O)C(C)(C)S2)cc1 (stereo not drawn) [(D) stereoisomer]
anti-tumor / anti-cancer activity (tumor): no activity

CC(C)=CCCC(C)CC1NC(C(=O)O)C(C)(C)S1 (stereo not drawn) [CNPA]
LD50 (Balb C Mice; ip): 3250 mg/kg
LD50 (Balb C Mice; oral): 4500 mg/kg

CC1(C)SC(c2ccccc2)N[C@H]1C(=O)O (stereo partly drawn) [L-BAPA]
activity compared to the corresponding racemate ([1]; (L) compound versus racemic mixture): at least twice as active as the corresponding racemic mixture
1/10 LD50 (B6C3F1 Mice; Schedule Day 1, Route ip): 88.4
Calculated LD50 mg/kg/inj. (B6C3F1 Mice; Schedule Day 1, Route ip): 884 mg/kg/inj.
1/10 LD50 (B6C3F1 Mice; Schedule Day 1, Route oral): 355
Calculated LD50 mg/kg/inj. (B6C3F1 Mice; Schedule Day 1, Route oral): 3553 mg/kg/inj.
1/10 LD50 (B6C3F1 Mice; Schedule Day 1-5, Route ip): 88.4
Calculated LD50 mg/kg/inj. (B6C3F1 Mice; Schedule Day 1-5, Route ip): 884 mg/kg/inj.
1/10 LD50 (B6C3F1 Mice; Schedule Day 1-5, Route oral): 216
Calculated LD50 mg/kg/inj. (B6C3F1 Mice; Schedule Day 1-5, Route oral): 2158 mg/kg/inj.
clinical symptoms, daily observation (CD1 mice; CD1 mice, 0.6 g in kg food ad libitum, 4 weeks): no clinical or other effect could be observed
Blood cell analysis and differential count (CD1 mice; [6]): All values are within the normal range and no significant difference between the control and the experimental groups is noted
Bone marrow differential count (CD1 mice; [6]): All values are within the normal range and no significant difference between the control and the experimental groups is noted
Histopathology (CD1 mice; CD1 mice, 0.6 g in kg food, 4 weeks, 10 male and 10 females per group, thirty-one organs): No other pathological or other changes could be observed
Food consumption (CD1 mice; CD1 mice, 0.6 g in kg food, 4 weeks, experimental food 12% humidity versus 6% control): more L-BAPA containing experimental food was consumed by the experimental group then normal food by the control
Blood clinical chemistry and urinalysis (CD1 mice; CD1 mice, 0.6 g in kg food, 4 weeks, pool of 2 mice each): All values are within the normal range and no significant difference between the control and the experimental groups is noted
Body weight (CD1 mice; [7]): no significant difference between the experimental group and the control group
Organ weight and ratio organ/body weight (CD1 mice; [7]): No significant difference between the experimental and the control group is noted
clinical or pathological changes (conclusion) (CD1 mice; mixed in the food (0.6 g in kg food), fed ad libitum for 4 weeks): does not produce any clinical or pathological changes to mice

CC1(C)SC(CCCC=O)N[C@H]1C(=O)O (stereo partly drawn) [L-GAPA]
1/10 LD50 (B6C3F1 Mice; Schedule Day 1, Route ip): 375
Calculated LD50 mg/kg/inj. (B6C3F1 Mice; Schedule Day 1, Route ip): 3749 mg/kg/inj.
1/10 LD50 (B6C3F1 Mice; Schedule Day 1, Route oral): 500
Calculated LD50 mg/kg/inj. (B6C3F1 Mice; Schedule Day 1, Route oral): >5000 mg/kg/inj.
1/10 LD50 (B6C3F1 Mice; Schedule Day 1-5, Route ip): 169
Calculated LD50 mg/kg/inj. (B6C3F1 Mice; Schedule Day 1-5, Route ip): 1690 mg/kg/inj.
1/10 LD50 (B6C3F1 Mice; Schedule Day 1-5, Route oral): 500
Calculated LD50 mg/kg/inj. (B6C3F1 Mice; Schedule Day 1-5, Route oral): >5000 mg/kg/inj.

CC(=O)C1N[C@@H](C(=O)O)C(C)(C)S1 (stereo partly drawn) [L-PAPA]
1/10 LD50 (B6C3F1 Mice; Schedule Day 1, Route ip): 500
Calculated LD50 mg/kg/inj. (B6C3F1 Mice; Schedule Day 1, Route ip): >5000 mg/kg/inj.
1/10 LD50 (B6C3F1 Mice; Schedule Day 1, Route oral): 500
Calculated LD50 mg/kg/inj. (B6C3F1 Mice; Schedule Day 1, Route oral): >5000 mg/kg/inj.
1/10 LD50 (B6C3F1 Mice; Schedule Day 1-5, Route ip): 277
Calculated LD50 mg/kg/inj. (B6C3F1 Mice; Schedule Day 1-5, Route ip): 2771 mg/kg/inj.
1/10 LD50 (B6C3F1 Mice; Schedule Day 1-5, Route oral): 500
Calculated LD50 mg/kg/inj. (B6C3F1 Mice; Schedule Day 1-5, Route oral): >5000 mg/kg/inj.

CC(=O)C1NC(C(=O)O)C(C)(C)S1 (stereo not drawn) [MGPA]
LD50 (Balb C Mice; ip): about 4500 mg/kg
LD50 (Balb C Mice; oral): 5000 mg/kg

COc1ccc(C2N[C@@H](C(=O)O)C(C)(C)S2)cc1 (stereo partly drawn) [PMPA]
anti-tumor / anti-cancer activity (tumor): potent anti-tumor activity
LD50 ([3]; 5250 mg/kg, ip): 5250 mg/kg
LD50 ([3]; 5500 mg/kg, oral): 5500 mg/kg
